US4292317A, “1,4-Dihydro-quinoline-3-carboxylic acid derivatives, process for their preparation and compositions containing them” (Laboratorie Roger Bellon, priority 1977, dated 1981)
Values after ≈ are worked out from the molar mass of the structure shown.

How the values were obtained:
[1] = system: Strept. pyogenes A. 65; experiment: Systemic infection in mice; type: in vivo; settings: Streptococcus pyogenes, po, 168 h, mice, p.o. at infection and 6 hours later, Strept. pyogenes A. 65, 7 days
Protocol: (§1) The activity of the compounds according to the invention against systemic infections in mice, caused by Staphylococcus 50,774, Streptococcus pyogenes A 65, Pseudomonas aeruginosa No. 12 and Escherichia coli P 5101, has been studied.
(§2) The infections were set up by intraperitoneal injection of a suspension of the bacterial culture corresponding to the germ studied. The products were administered orally at the time of injection, and 6 hours later. […] Aureus and for 7 days for the other germs.
(§3) Oxolinic acid was used as the reference substance.

[2] = system: Escherichia coli P 5101; experiment: Systemic infection in mice; type: in vivo; settings: P5101, po, 168 h, mice, p.o. at infection and 6 hours later, E. coli P 5101, 7 days
Protocol: as §1, §2, §3

[3] = system: Staph. aureus 50,774; experiment: Systemic infection in mice; type: in vivo; settings: Staphylococcus aureus, po, 336 h, mice, p.o. at infection and 6 hours later, Staph. aureus 50,774, 14 days
Protocol: as §1, §2, §3

[4] = system: Pseudomonas aeruginosa No. 12; experiment: Systemic infection in mice; type: in vivo; settings: po, 168 h, mice, p.o. at infection and 6 hours later, P. aeruginosa No. 12, 7 days
Protocol: as §1, §2, §3

[5] = system: Strept. pyogenes A. 65; experiment: M.I.C. for germ used in experimental infection; type: cell-based; settings: Streptococcus pyogenes, 18 h; Table 4; Strept. pyogenes A. 65; read-out: M.I.C.
Protocol: (§4) After sterilisation at 120° C., the pH was 6.8.
(§5) The minimum inhibitory concentrations (M.I.C.) were determined by dilution of the test compounds in this mixture, the concentration ranging from 0.05 to 100 μg/cm^3 in a geometric progression with a factor of 2.
(§6) The inoculation of the dishes was carried out by means of a multiple inoculator with 10^-3 dilutions of 18 hour old broth cultures.
(§7) The dishes were placed in an oven at 37° C. and the readings were taken afer an incubation time of 18 hours. The M.I.C. was taken as the lowest concentration which inhibited a culture.

[6] = system: Escherichia coli P 5101; experiment: M.I.C. for germ used in experimental infection; type: cell-based; settings: P5101, 18 h, Table 4, E. coli P 5101, read-out: M.I.C.
Protocol: as §4, §5, §6, §7

[7] = system: Staph. aureus 50,774; experiment: M.I.C. for germ used in experimental infection; type: cell-based; settings: Staphylococcus aureus, 18 h; Table 4; Staph. aureus 50,774; read-out: M.I.C.
Protocol: as §4, §5, §6, §7

[8] = system: Pseudomonas aeruginosa No. 12; experiment: M.I.C. for germ used in experimental infection; type: cell-based; settings: 18 h, Table 4, P. aeruginosa No. 12, read-out: M.I.C.
Protocol: as §4, §5, §6, §7

[9] = system: Providentia 0223; experiment: M.I.C. in vitro, nutrient agar dilution; type: cell-based; settings: 18 h; Table III; Providentia 0223; read-out: M.I.C.
Protocol: as §4, §5, §6, §7

[10] = system: Sh. sonnei I.P.S.; experiment: M.I.C. in vitro, nutrient agar dilution; type: cell-based; settings: Shigella sonnei, 18 h
Protocol: as §4, §5, §6, §7

[11] = system: Serratia; experiment: M.I.C. in vitro, nutrient agar dilution; type: cell-based; settings: 18 h, Table III, read-out: M.I.C.
Protocol: as §4, §5, §6, §7

[12] = system: Esch. coli 111 B4; experiment: M.I.C. in vitro, nutrient agar dilution; type: cell-based; settings: Escherichia coli, 18 h; Table III; Esch. coli 111 B4
Protocol: as §4, §5, §6, §7

[13] = system: Staph. 209 P; experiment: M.I.C. in vitro, nutrient agar dilution; type: cell-based; settings: 18 h; Table III; Staph. 209 P; read-out: M.I.C.
Protocol: as §4, §5, §6, §7

[14] = system: Arizona 6.211; experiment: M.I.C. in vitro, nutrient agar dilution; type: cell-based; settings: 18 h; Table III; Arizona 6.211; read-out: M.I.C.
Protocol: as §4, §5, §6, §7

[15] = system: Esch. coli 54.127 O.M.S.; experiment: M.I.C. in vitro, nutrient agar dilution; type: cell-based; settings: Escherichia coli, 18 h; Table III; Esch. coli 54.127 O.M.S.; read-out: M.I.C.
Protocol: as §4, §5, §6, §7

[16] = system: Strepto A 561; experiment: M.I.C. in vitro, nutrient agar dilution; type: cell-based; settings: 18 h; Table III; Strepto A 561
Protocol: as §4, §5, §6, §7

[17] = system: Staph. 9.144; experiment: M.I.C. in vitro, nutrient agar dilution; type: cell-based; settings: 18 h; Table III; Staph. 9.144; read-out: M.I.C.
Protocol: as §4, §5, §6, §7

[18] = system: Klebs. pneum. 10.031; experiment: M.I.C. in vitro, nutrient agar dilution; type: cell-based; settings: 18 h; Table III; Klebs. pneum. 10.031; read-out: M.I.C.
Protocol: as §4, §5, §6, §7

[19] = system: Pr. vulgaris 12-53; experiment: M.I.C. in vitro, nutrient agar dilution; type: cell-based; settings: Proteus vulgaris, 1253, 18 h; Table III; Pr. vulgaris 12-53; read-out: M.I.C.
Protocol: as §4, §5, §6, §7

[20] = system: Ps. aeruginosa A.22; experiment: M.I.C. in vitro, nutrient agar dilution; type: cell-based; settings: Pseudomonas aeruginosa, 18 h; Table III; Ps. aeruginosa A.22; read-out: M.I.C.
Protocol: as §4, §5, §6, §7

[21] = system: Pr. mirabilis Nig; experiment: M.I.C. in vitro, nutrient agar dilution; type: cell-based; settings: Proteus mirabilis, 18 h; Table III; Pr. mirabilis Nig; read-out: M.I.C.
Protocol: as §4, §5, §6, §7

[22] = system: S. oranienburg 1066; experiment: M.I.C. in vitro, nutrient agar dilution; type: cell-based; settings: Salmonella enterica, 18 h; Table III; S. oranienburg 1066; read-out: M.I.C.
Protocol: as §4, §5, §6, §7

[23] = system: Bord. bronchis. 4.617; experiment: M.I.C. in vitro, nutrient agar dilution; type: cell-based; settings: 18 h; Table III; Bord. bronchis. 4.617; read-out: M.I.C.
Protocol: as §4, §5, §6, §7

[24] = system: S. enteritidis Danysz; experiment: M.I.C. in vitro, nutrient agar dilution; type: cell-based; settings: Salmonella enterica, 18 h; Table III; S. enteritidis Danysz; read-out: M.I.C.
Protocol: as §4, §5, §6, §7

[25] = system: Pr. morganii A.236; experiment: M.I.C. in vitro, nutrient agar dilution; type: cell-based; settings: Morganella morganii, 18 h; Table III; Pr. morganii A. 236; read-out: M.I.C.
Protocol: as §4, §5, §6, §7

[26] = system: Esch. coli 95 I.S.M.; experiment: M.I.C. in vitro, nutrient agar dilution; type: cell-based; settings: Escherichia coli, 18 h; Table III; Esch. coli 95 I.S.M.; read-out: M.I.C.
Protocol: as §4, §5, §6, §7

[27] = system: Ps. aeruginosa 72.345; experiment: M.I.C. in vitro, nutrient agar dilution; type: cell-based; settings: Pseudomonas aeruginosa, 18 h; Table III; Pd. aeruginosa 72.345; read-out: M.I.C.
Protocol: as §4, §5, §6, §7

[28] = system: B. subtilis; experiment: M.I.C. in vitro, nutrient agar dilution; type: cell-based; settings: Bacillus subtilis, 18 h; Table III; B. Subtilis; read-out: M.I.C.
Protocol: as §4, §5, §6, §7

[29] = system: Strepto D.M. 19; experiment: M.I.C. in vitro, nutrient agar dilution; type: cell-based; settings: 18 h; Table III; Strepto D.M. 19; read-out: M.I.C.
Protocol: as §4, §5, §6, §7

[30] = system: Salm. typhi 0901; experiment: microbe, parasite or virus in culture; type: cell-based; settings: Salmonella enterica, 18 h; Table III; Salm. typhi 0901
Protocol: as §4, §5, §6, §7

Compound: CCn1cc(C(=O)O)c(=O)c2cc(F)c(N3CCNCC3)cc21 [Example 22, 1-Ethyl-6-fluoro-4-oxo-7-piperazinyl-1,4-dihydro-quinoline-3-carboxylic acid]
- ED50 ([1]; read-out: ED50): > 100 mg/kg
- ED90 ([1]; read-out: ED90): > 100 mg/kg
- ED50 ([2]; read-out: ED50): 4 mg/kg
- ED90 ([2]; read-out: ED90): 10.4 mg/kg
- ED50 ([3]; read-out: ED50): 20.6 mg/kg
- ED90 ([3]; read-out: ED90): 44.1 mg/kg
- ED50 ([4]; read-out: ED50): 17.7 mg/kg
- ED90 ([4]; read-out: ED90): 25.9 mg/kg
- MIC [5]: 1.56 µg/mL (≈ 4.89 µM)
- MIC [6]: 0.1 µg/mL (≈ 0.313 µM)
- MIC [7]: 0.78 µg/mL (≈ 2.44 µM)
- MIC [8]: 0.78 µg/mL (≈ 2.44 µM)
- MIC [9]: 0.8 to 1.6 µg/mL (≈ 2.51 to 5.01 µM)
- MIC [10]: 0.01 to 0.02 µg/mL (≈ 0.0313 to 0.0626 µM)
- MIC [11]: 1 to 6.2 µg/mL (≈ 3.13 to 19.4 µM)
- MIC [12]: 0.1 to 0.2 µg/mL (≈ 0.313 to 0.626 µM)
- MIC [13]: 0.2 to 0.4 µg/mL (≈ 0.626 to 1.25 µM)
- MIC [14]: 0.2 µg/mL (≈ 0.626 µM)
- MIC [15]: 0.2 µg/mL (≈ 0.626 µM)
- MIC [16]: 50 µg/mL (≈ 157 µM)
- MIC [17]: 0.2 to 0.4 µg/mL (≈ 0.626 to 1.25 µM)
- MIC [18]: 0.1 to 0.2 µg/mL (≈ 0.313 to 0.626 µM)
- MIC [19]: 0.05 µg/mL (≈ 0.157 µM)
- MIC [20]: 0.4 to 0.8 µg/mL (≈ 1.25 to 2.51 µM)
- MIC [21]: 0.1 to 0.2 µg/mL (≈ 0.313 to 0.626 µM)
- MIC [22]: 6.2 µg/mL (≈ 19.4 µM)
- MIC [23]: 6.25 to 12.5 µg/mL (≈ 19.6 to 39.1 µM)
- MIC [24]: 0.2 µg/mL (≈ 0.626 µM)
- MIC [25]: 0.05 µg/mL (≈ 0.157 µM)
- MIC [26]: 0.2 µg/mL (≈ 0.626 µM)
- MIC [27]: 0.4 to 0.8 µg/mL (≈ 1.25 to 2.51 µM)
- MIC [28]: 0.2 µg/mL (≈ 0.626 µM)
- MIC [29]: 1.6 to 3.1 µg/mL (≈ 5.01 to 9.71 µM)
- MIC [30]: 0.05 to 0.2 µg/mL (≈ 0.157 to 0.626 µM)
